Test results from patent publication US10508109B2 (priority 2015, dated 2019).
Counter-ions that a name gives are not always drawn. Like-named read-outs stand apart in the source and are kept apart here.

Assays:
[1] = molecular target: SUV39H2 (Homo sapiens (Human), UniProt Q9H5I1); settings: read-out: IC50 (μM) Suv 39H2 assay; enzyme assay
[2] = tested on: A549; assay: Cell-based assay, anti-proliferative activity (Cell Counting Kit-8, 72 hours); settings: Homo sapiens, read-out: IC50 (μM) A549
Summary of the method: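 Following seeding into 96-well microtiter plates, the cells receive candidate inhibitors, and cellular growth is quantified at the end of the exposure period. An IC50 is computed for each compound.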

[3] = tested on: PC14; assay: as above; settings: Homo sapiens, read-out: IC50 (μM) PC14
Summary of the method: (§1)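 IC50 values reflect cell growth measured by Cell Counting Kit-8 following 72 hours of inhibitor exposure across a twofold dilution range up to 100 micro-M.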

[4] = tested on: HFL1; assay: as above; settings: Homo sapiens, read-out: IC50 (μM) HFL1
Summary of the method: as §1

[5] = tested on: CCD-18Co; assay: as above; settings: Homo sapiens, read-out: IC50 (μM) CCD-18Co
Summary of the method: as §1

[6] = tested on: HCT-116; assay: as above; settings: Homo sapiens, read-out: IC50 (μM) HCT-116
Summary of the method: as §1

[7] = A549 cells, Cell Counting Kit-8, 72 hours
[8] = PC-14, PC14 cells, Cell Counting Kit-8, 72 hours
[9] = HFL1 cells, Cell Counting Kit-8, 72 hours
[10] = CCD-18Co cells, Cell Counting Kit-8, 72 hours
[11] = HCT-116 cells, Cell Counting Kit-8, 72 hours
[12] = A549 cells, 72 hours, Cell Counting Kit-8
[13] = PC-14, PC14 cells, 72 hours, Cell Counting Kit-8
[14] = HFL1 cells, 72 hours, Cell Counting Kit-8
[15] = CCD-18Co cells, 72 hours, Cell Counting Kit-8
[16] = HCT-116 cells, 72 hours, Cell Counting Kit-8

Chain of SUV39H2 (Q9H5I1 whole entry): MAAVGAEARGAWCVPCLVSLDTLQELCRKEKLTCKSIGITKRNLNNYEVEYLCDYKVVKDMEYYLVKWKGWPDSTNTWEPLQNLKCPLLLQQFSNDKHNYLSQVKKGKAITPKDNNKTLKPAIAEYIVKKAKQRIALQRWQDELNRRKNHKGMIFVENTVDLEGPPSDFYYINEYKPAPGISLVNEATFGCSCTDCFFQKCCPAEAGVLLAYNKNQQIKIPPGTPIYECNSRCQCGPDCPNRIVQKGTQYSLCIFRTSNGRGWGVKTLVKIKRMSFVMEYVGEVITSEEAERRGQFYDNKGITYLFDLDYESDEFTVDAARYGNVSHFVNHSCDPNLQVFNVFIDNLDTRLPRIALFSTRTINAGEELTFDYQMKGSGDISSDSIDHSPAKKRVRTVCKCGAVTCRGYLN

Row | Structure (SMILES) | IC50 [1] | IC50 [2, 7] | IC50 [3, 8] | IC50 [4, 9] | IC50 [5, 10] | IC50 [6, 11] | IC50 [2, 12] | IC50 [3, 13] | IC50 [4, 14] | IC50 [5, 15] | IC50 [6, 16] | IC50 ([2]; A549, 72 h) | IC50 ([3]; PC-14, 72 h) | IC50 ([4]; HFL1, 72 h) | IC50 ([5]; CCD-18Co, 72 h) | IC50 ([6]; HCT-116, 72 h)
1 | COc1cc(OC)c(-c2cn3ccc(N4CCC[C@@H](N)C4)cc3n2)cc1Cl [Example 30, (R)-1-(5-chloro-2,4-dimethoxyphenyl)imidazo[1,2-a]pyridine-7-yl)piperidin-3-amine dihydrochloride] | 0.009 µM | 3.4 µM | 2.3 µM | 2 µM | 3.9 µM | 5.1 µM |  |  |  |  |  |  |  |  |  | 
2 | COc1cc(OC)c(-c2cn3ccc(N4CCN(c5ccc(C#N)cn5)CC4)cc3n2)cc1Cl [Example 293, 6-(4-(2-(5-chloro-2,4-dimethoxyphenyl)imidazo[1,2-a]pyridin-7-yl)-piperazin-1-yl)nicotinonitrile] | 0.0226 µM |  |  |  |  |  | 0.67 µM | 1 µM | 1.3 µM | 0.62 µM | 0.33 µM |  |  |  |  | 
3 | COc1cc(OC)c(-c2cn3ccc(N4CCCN(P(=O)(OC)OC)CC4)cc3n2)cc1Cl [Example 207, dimethyl (4-(2-(5-chloro-2,4-dimethoxyphenyl)imidazo[1,2-a]pyridin-7-yl)-1,4-diazepan-1-yl)phosphonate] | 0.0113 µM |  |  |  |  |  |  |  |  |  |  | 10 µM | 10 µM | 10 µM | 10 µM | 10 µM
4 | COc1cc(OC)c(-c2cn3ccc(N4CCNC(CO)C4)cc3n2)cc1Cl (stereo not drawn) [Example 235, (4-(2-(5-chloro-2,4-dimethoxyphenyl)imidazo[1,2-a]pyridin-7-yl)-piperazin-2-yl)methanol] | 0.0115 µM |  |  |  |  |  | 5.3 µM | 5.6 µM | 4.3 µM | 6.7 µM | 6.6 µM |  |  |  |  | 
5 | COc1cc(OC)c(-c2cn3ccc(NC(=O)CNC(=O)OC(C)(C)C)cc3n2)cc1Cl [Example 161, tert-butyl (2-((2-(5-chloro-2,4-dimethoxyphenyl)imidazo[1,2-a]pyridin-7-yl)-amino)-2-oxoethyl)carbamate] | 0.0379 µM | 8.8 µM | 8.7 µM | 8.4 µM | 7.8 µM | 7 µM |  |  |  |  |  |  |  |  |  | 
6 | COc1cc(OC)c(-c2cn3ccc(N4CCN(S(=O)(=O)C(C)C)CC4)cc3n2)cc1Cl [Example 178, 2-(5-chloro-2,4-dimethoxyphenyl)-7-[4-(isopropylsulfonyl)piperazin-1-yl]imidazo[1,2-a]pyridine] | 0.0143 µM | 1 µM | 0.74 µM | 1.7 µM | 2.1 µM | 1.5 µM |  |  |  |  |  |  |  |  |  | 
7 | CCc1cc(OC)c(Cl)cc1-c1cn2ccc(N3CCN(S(=O)(=O)C4CC4)CC3)cc2n1 [Example 261, 2-(5-chloro-2-ethyl-4-methoxyphenyl)-7-(4-(cyclopropylsulfonyl)piperazin-1-yl)imidazo[1,2-a]pyridine] | 0.0966 µM |  |  |  |  |  | 0.12 µM | 0.059 µM | 0.18 µM | 0.36 µM | 0.18 µM |  |  |  |  | 
8 | COc1cc(OC)c(-c2cn3ccc(N4CCOCC4)cc3n2)cc1Cl [Example 12, 4-(2-(5-chloro-2,4-dimethoxyphenyl)imidazo[1,2-a]pyridin-7-yl)morpholine hydrobromide] | 0.012 µM | 6.9 µM | 2.9 µM | 6.8 µM | 9 µM | 5.1 µM |  |  |  |  |  |  |  |  |  | 
9 | COc1cc(OC)c(-c2cn3ccc(-c4ccc(C(=O)NCC5CCNCC5)cc4)cc3n2)cc1Cl [Example 267, 4-(2-(5-chloro-2,4-dimethoxyphenyl)imidazo[1,2-a]pyridin-7-yl)-N-(piperidin-4-ylmethyl)benzamide] | 0.0458 µM |  |  |  |  |  | 10 µM | 10 µM | 10 µM | 10 µM | 10 µM |  |  |  |  | 
10 | COc1cc(OC)c(-c2cn3ccc(N4CCN(S(=O)(=O)C5CC5)C(CO)C4)cc3n2)cc1Cl (stereo not drawn) [Example 236, (4-(2-(5-chloro-2,4-dimethoxyphenyl)imidazo[1,2-a]pyridin-7-yl)-1-(cyclopropylsulfonyl)piperazin-2-yl)methanol] | 0.00655 µM |  |  |  |  |  | 4.8 µM | 3.3 µM | 4.1 µM | 4 µM | 4.4 µM |  |  |  |  | 
11 | COc1cc(OC)c(-c2cn3ccc(-c4ccc(C(=O)NCCNCCNC(=O)OC(C)(C)C)cc4)cc3n2)cc1Cl [Example 269, tert-butyl (2-((2-(4-(2-(5-chloro-2,4-dimethoxyphenyl)imidazo[1,2-a]pyridin-7-yl)benzamido)ethyl)amino)ethyl)carbamate] | 0.0408 µM |  |  |  |  |  | 1.2 µM | 0.94 µM | 1.3 µM | 0.87 µM | 0.75 µM |  |  |  |  | 
12 | COc1cc(OCCN)c(-c2cn3ccc(N4CCN(S(=O)(=O)C5CC5)CC4)cc3n2)cc1Cl [Example 234, 2-(4-chloro-2-(7-(4-(cyclopropylsulfonyl)piperazin-1-yl)imidazo[1,2-a]-pyridin-2-yl)-5-methoxyphenoxy)ethanamine] | 0.0418 µM |  |  |  |  |  | 10 µM | 6.4 µM | 6.2 µM | 6.1 µM | 5.3 µM |  |  |  |  | 
13 | CCOP(=O)(CCN1CCCN(c2ccn3cc(-c4cc(Cl)c(OC)cc4OCCCN(C)C)nc3c2)CC1)OCC [Example 214, diethyl (2-(4-(2-(5-chloro-2-(3-(dimethylamino)propoxy)-4-methoxyphenyl)-imidazo[1,2-a]pyridin-7-yl)-1,4-diazepan-1-yl)ethyl)phosphonate] | 0.0106 µM |  |  |  |  |  | 10 µM | 10 µM | 10 µM | 10 µM | 10 µM |  |  |  |  | 
14 | COc1cc(OC)c(-c2cn3ccc(N4CCN(CCN5CCCC5)CC4)cc3n2)cc1Cl [Example 143, 2-(5-chloro-2,4-dimethoxyphenyl)-7-(4-(2-(pyrrolidin-1-yl)ethyl)piperazin-1-yl)imidazo[1,2-a]pyridine] | 0.0044 µM | 4 µM | 4.4 µM | 8.5 µM | 2.7 µM | 8.1 µM |  |  |  |  |  |  |  |  |  | 
15 | COc1cc(OC)c(-c2cn3cc(NCCN)c(N4CCOCC4)cc3n2)cc1Cl [Example 89, N^1-(2-(5-chloro-2,4-dimethoxyphenyl)-7-morpholinoimidazo[1,2-a]-pyridin-6-yl)ethane-1,2-diamine] | 0.00335 µM | 3 µM | 2.7 µM | 1.6 µM | 3 µM | 4.4 µM |  |  |  |  |  |  |  |  |  | 
16 | COc1cc(OC)c(-c2cn3ccc(N4CCN(CCN(C)C)CC4)cc3n2)cc1Cl [Example 88, 2-(4-(2-(5-chloro-2,4-dimethoxyphenyl)imidazo[1,2-a]pyridin-7-yl)piperazin-1-yl)-N,N-dimethylethanamine] | 0.00884 µM | 3.3 µM | 2.9 µM | 3 µM | 5.6 µM | 3.9 µM |  |  |  |  |  |  |  |  |  | 
17 | COc1cc(OC)c(-c2cn3ccc(N4CCC(NC(C)=O)C4)cc3n2)cc1Cl (stereo not drawn) [Example 37, N-(1-(2-(5-chloro-2,4-dimethoxyphenyl)imidazo[1,2-a]pyridin-7-yl)pyrrolidin-3-yl)acetamide] | 0.00435 µM | 14 µM | 8.2 µM | 5.4 µM | 11 µM | 12 µM |  |  |  |  |  |  |  |  |  | 
18 | CCOC(=O)CCN1CC=C(c2ccn3cc(-c4cc(Cl)c(OC)cc4OC)nc3c2)CC1 [Example 140, ethyl 3-(4-(2-(5-chloro-2,4-dimethoxyphenyl)imidazo[1,2-a]pyridin-7-yl)-5,6-dihydropyridin-1(2H)-yl)propanoate] | 0.0578 µM | 25 µM | 12 µM | 27 µM | 56 µM | 16 µM |  |  |  |  |  |  |  |  |  | 
19 | COc1cc(OCCCN(C)C)c(-c2cn3ccc(N4CCN(S(=O)(=O)C(C)C)CC4)cc3n2)cc1Cl [Example 197, 3-(4-Chloro-2-(7-(4-(isopropylsulfonyl)piperazin-1-yl)imidazo[1,2-a]pyridin-2-yl)-5-methoxyphenoxy)-N,N-dimethylpropan-1-amine] | 0.0144 µM | 3.4 µM | 2.3 µM | 2.9 µM | 2.9 µM | 3.8 µM |  |  |  |  |  |  |  |  |  | 
20 | COc1cc(OC)c(-c2cn3ccc(N4CCN(c5cccc(F)n5)CC4)cc3n2)cc1Cl [Example 281, 2-(5-chloro-2,4-dimethoxyphenyl)-7-(4-(6-fluoropyridin-2-yl)piperazin-1-yl)imidazo[1,2-a]pyridine] | 0.0988 µM |  |  |  |  |  | 1.2 µM | 0.9 µM | 0.76 µM | 0.83 µM | 0.82 µM |  |  |  |  | 
